Experimental data as given in EP0326331B1, “Substituted quinolines and cinnolines” (Dow AgroSciences LLC, priority 1988, dated 1989).
Where two headings read alike, the source gives them in different places.

Assays:
Type in all cases: in vivo
[1] = test system: Erysiphe graminis tritici (powdery mildew); experiment: Test 1 greenhouse foliar spray screen, powdery mildew on wheat; conditions: for POWD MDEW: disease control rating, foliar spray on wheat, 400 ppm (+++ at 100 ppm); for pest or weed control at 400 ppm: Blumeria graminis, foliar, Test 1, foliar spray on wheat, disease control rating at 400 ppm / 100 ppm, read-out: POWD MDEW
[2] = test system: Pyricularia oryzae (rice blast); experiment: whole plant or invertebrate; conditions: for RICE BLAST: disease control rating, foliar spray on rice, 400 ppm (+++ at 100 ppm); for pest or weed control at 400 ppm: Pyricularia oryzae, foliar, read-out: RICE BLAST, Test 1, foliar spray on rice, disease control rating at 400 ppm / 100 ppm
[3] = test system: Puccinia recondita tritici (leaf rust); experiment: Test 1 greenhouse foliar spray screen, leaf rust on wheat; conditions: for LEAF RUST: disease control rating, foliar spray on wheat, 400 ppm (+++ at 100 ppm); for pest or weed control at 400 ppm: Puccinia recondita, foliar, Test 1, foliar spray on wheat, disease control rating at 400 ppm / 100 ppm
[4] = test system: Botrytis cinerea (gray mold); experiment: Test 1 greenhouse foliar spray screen, gray mold on grape berries; conditions: for GRAY MOLD: disease control rating, spray on grape berries, 400 ppm (+++ at 100 ppm); for pest or weed control at 400 ppm: Botrytis cinerea, foliar, Test 1, spray on grape berries, disease control rating at 400 ppm / 100 ppm
[5] = test system: Pseudoperonospora cubensis (downy mildew); experiment: Test 1 greenhouse foliar spray screen, downy mildew on squash; conditions: for DOWN MDEW: disease control rating, foliar spray on squash, 400 ppm (+++ at 100 ppm); for pest or weed control at 400 ppm: Pseudoperonospora cubensis, foliar, Test 1, foliar spray on squash, disease control rating at 400 ppm / 100 ppm, read-out: DOWN MDEW
[6] = test system: Cercospora beticola (leaf spot); experiment: Test 1 greenhouse foliar spray screen, leaf spot on sugar beet; conditions: for LEAF SPOT: disease control rating, foliar spray on sugar beet, 400 ppm (+++ at 100 ppm); for pest or weed control at 400 ppm: Cercospora beticola, Test 1, foliar spray on sugar beet, disease control rating at 400 ppm / 100 ppm
[7] = test system: Venturia inaequalis (apple scab); experiment: Test 1 greenhouse foliar spray screen, apple scab on apple seedling; conditions: for APPL SCAB: disease control rating, foliar spray on apple seedling, 400 ppm (+++ at 100 ppm); for pest or weed control at 400 ppm: Venturia inaequalis, Test 1, foliar spray on apple seedling, disease control rating at 400 ppm / 100 ppm, read-out: APPL SCAB
[8] = test system: Septoria tritici (leaf blotch); experiment: Test 1 greenhouse foliar spray screen, leaf blotch on wheat; conditions: for LEAF BLOT: disease control rating, foliar spray on wheat, 400 ppm (+++ at 100 ppm); for pest or weed control at 400 ppm: Zymoseptoria tritici, Test 1, foliar spray on wheat, disease control rating at 400 ppm / 100 ppm, read-out: LEAF BLOT
[9] = test system: southern armyworm (Spodopetra eridania Cramer); experiment: Mite/insect screen, SAW; conditions: percent mortality; for mortality at 200 ppm / mortality at 400 ppm: Spodoptera eridania, read-out: SAW RESULTS %
Procedure, shortened: (§1)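 Compounds dissolved in acetone/alcohol (50:50) with TOXIMUL R and S emulsifiers, diluted in water to test concentrations, and sprayed to runoff on both leaf surfaces at 10 psi, then dried 1 h. For armyworm, excised treated leaves were offered to larvae; percent mortality scored after standard exposure periods.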

[10] = test system: Twospotted spider mites (Tetranychus urticae Koch); experiment: Mite/insect screen, SM; conditions: percent mortality; for mortality at 200 ppm / mortality at 400 ppm: Tetranychus urticae, read-out: SM RESULTS %
Procedure, shortened: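 Compounds dissolved in 50:50 acetone/alcohol containing sulfonate/nonionic emulsifier blends, then diluted with water to the indicated concentrations. Leaves sprayed on both surfaces to runoff at 10 psi and dried one hour. Percent mortality scored after standard exposure periods.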

[11] = test system: melon aphids (Aphis gossypii Glover); experiment: Mite/insect screen, MA; conditions: percent mortality; for mortality at 200 ppm / mortality at 400 ppm: Aphis gossypii, read-out: MA RESULTS %
Procedure, shortened: as §1

corn rootworm = experiment: Mite/insect screen, CRW; conditions: percent mortality; for mortality at 12 ppm / mortality at 24 ppm: read-out: CRW RESULTS %
Procedure, shortened: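 Compounds dissolved in 50:50 acetone/alcohol with TOXIMUL R and S emulsifiers (23 and 13 g/L), then diluted in water to the stated test concentrations. Percent mortality of corn rootworm scored after standard exposure periods.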

[12] = foliar, rate 200 ppm, foliar spray on squash
[13] = foliar, rate 400 ppm, foliar spray on squash

Compound	POWD MDEW [1]	RICE BLAST [2]	LEAF RUST [3]	GRAY MOLD [4]	DOWN MDEW [5]	LEAF SPOT [6]	APPL SCAB [7]	LEAF BLOT [8]	mortality at 200 ppm [9, 12] [%]	mortality at 200 ppm [10, 12] [%]	mortality at 200 ppm [11, 12] [%]	mortality at 12 ppm (corn rootworm; CRW rate 12.00 ppm) [%]	mortality at 200 ppm ([9]; SAW, SM & MA RATE 200 PPM) [%]	mortality at 400 ppm ([9]; SAW, SM & MA RATE 400 PPM) [%]	mortality at 200 ppm ([10]; SAW, SM & MA RATE 200 PPM) [%]	mortality at 400 ppm ([10]; SAW, SM & MA RATE 400 PPM) [%]	mortality at 200 ppm ([11]; SAW, SM & MA RATE 200 PPM) [%]	mortality at 400 ppm ([11]; SAW, SM & MA RATE 400 PPM) [%]	mortality at 12 ppm (corn rootworm; CRW RATE 12.00 PPM) [%]	mortality at 24 ppm (corn rootworm; CRW RATE 24.00 PPM) [%]	also measured
CC(CNc1cc(NCC(C)c2ccccc2)c2ccccc2n1)c1ccccc1 (stereo not shown) [Example 184, N,N'-bis(2-phenylpropyl)-2,4-quinolinediamine]	- (0-19% control at 400 ppm)	+ (20-89% control at 400 ppm)	++ (90-100% control at 400 ppm)	- (0-19% control at 400 ppm)	++ (90-100% control at 400 ppm)	- (0-19% control at 400 ppm)	- (0-19% control at 400 ppm)	- (0-19% control at 400 ppm)	0	0	0	0	–	–	–	–	–	–	–	–	–
Cc1ccc(CCNc2ccnc3c(Cl)cccc23)cc1 [Example 87, 8-chloro-N-[2-(4-methylphenyl)ethyl]-4-quinolinamine]	- (0-19% control at 400 ppm)	- (0-19% control at 400 ppm)	+ (20-89% control at 400 ppm)	- (0-19% control at 400 ppm)	+++ (90-100% control at 100 ppm)	- (0-19% control at 400 ppm)	- (0-19% control at 400 ppm)	- (0-19% control at 400 ppm)	–	–	–	–	0	0	0	0	0	0	0	0	–
N-[2-(2,3,4,5,6-tetramethylphenyl)ethyl]-8-fluoro-4-quinolinamine [Example 112]	- (0-19% control at 400 ppm)	- (0-19% control at 400 ppm)	+ (20-89% control at 400 ppm)	- (0-19% control at 400 ppm)	+++ (90-100% control at 100 ppm)	- (0-19% control at 400 ppm)	- (0-19% control at 400 ppm)	- (0-19% control at 400 ppm)	–	–	–	–	–	–	–	–	–	–	–	–	SAW RESULTS % ([9]; SAW, SM & MA RATE 200 PPM): 0%; SAW RESULTS % ([9]; SAW, SM & MA RATE 400 PPM): 0%; SM RESULTS % ([10]; SAW, SM & MA RATE 200 PPM): 0%; SM RESULTS % ([10]; SAW, SM & MA RATE 400 PPM): 0%; MA RESULTS % ([11]; SAW, SM & MA RATE 200 PPM): 0%; MA RESULTS % ([11]; SAW, SM & MA RATE 400 PPM): 0%; CRW RESULTS % (corn rootworm; CRW RATE 12.00 PPM): 0%; CRW RESULTS % (corn rootworm; CRW RATE 24.00 PPM): 0%
Fc1cccc2c(NCCc3ccccc3Cl)ccnc12 [Example 82, N-[2-(2-chlorophenyl)ethyl]-8-fluoro-4-quinolinamine]	+ (20-89% control at 400 ppm)	+++ (90-100% control at 100 ppm)	+++ (90-100% control at 100 ppm)	- (0-19% control at 400 ppm)	+++ (90-100% control at 100 ppm)	+ (20-89% control at 400 ppm)	- (0-19% control at 400 ppm)	+++ (90-100% control at 100 ppm)	–	–	–	–	0	–	0	–	0	–	0	–	–
c1ccc(CCOc2ccnc3ccccc23)cc1 [Example 208, 4-(2-phenylethoxy)quinoline]	–	–	–	–	–	–	–	–	0	10	10	0	–	–	–	–	–	–	–	–	pest or weed control at 400 ppm [1]: 90 to 100%; pest or weed control at 400 ppm [2]: 90 to 100%; pest or weed control at 400 ppm [3]: 90 to 100%; pest or weed control at 400 ppm [4]: 0 to 19%; pest or weed control at 400 ppm [5]: 90 to 100%; pest or weed control at 400 ppm [6]: 20 to 89%; pest or weed control at 400 ppm [7]: 0 to 19%; pest or weed control at 400 ppm [8]: 20 to 89%
Cc1cc(C)c2nccc(NCCC3=CCCCC3)c2c1 [Example 144, N-[2-(1-cyclohexenyl)ethyl]-6,8-dimethyl-4-quinolinamine]	- (0-19% control at 400 ppm)	+ (20-89% control at 400 ppm)	++ (90-100% control at 400 ppm)	- (0-19% control at 400 ppm)	+++ (90-100% control at 100 ppm)	+ (20-89% control at 400 ppm)	+ (20-89% control at 400 ppm)	- (0-19% control at 400 ppm)	–	–	–	–	0	0	0	0	0	0	0	0	–
Fc1cccc2c(CCCc3ccc(Cl)cc3)ccnc12 [Example 261, 4-[3-(4-chlorophenyl)propyl]-8-fluoroquinoline]	–	–	–	–	–	–	–	–	100	90	100	0	–	–	–	–	–	–	–	–	pest or weed control at 400 ppm [1]: 20 to 89%; pest or weed control at 400 ppm [2]: 20 to 89%; pest or weed control at 400 ppm [3]: 90 to 100%; pest or weed control at 400 ppm [4]: 0 to 19%; pest or weed control at 400 ppm [5]: 20 to 89%; pest or weed control at 400 ppm [6]: 0 to 19%; pest or weed control at 400 ppm [7]: 20 to 89%; pest or weed control at 400 ppm [8]: 20 to 89%; mortality at 400 ppm [9, 13]: 80%; mortality at 400 ppm [10, 13]: 50%; mortality at 400 ppm [11, 13]: 100%; mortality at 24 ppm (corn rootworm; CRW rate 24.00 ppm): 100%
Clc1ccc2c(NCCC3=CCCCC3)ccnc2c1 [Example 165, 7-chloro-N-[2-(1-cyclohexenyl)ethyl]-4-quinolinamine]	+ (20-89% control at 400 ppm)	++ (90-100% control at 400 ppm)	++ (90-100% control at 400 ppm)	- (0-19% control at 400 ppm)	+++ (90-100% control at 100 ppm)	+++ (90-100% control at 100 ppm)	+ (20-89% control at 400 ppm)	- (0-19% control at 400 ppm)	0	0	0	0	–	0	–	0	–	0	–	0	activity against downy mildew ([5]; summary statement in the description): particularly excellent activity
COc1ccc(CCNc2ccnc3cc(C(F)(F)F)ccc23)cc1OC [Example 48, N-[2-(3,4-dimethoxyphenyl)ethyl]-7-(trifluoromethyl)-4-quinolinamine]	+ (20-89% control at 400 ppm)	+ (20-89% control at 400 ppm)	+ (20-89% control at 400 ppm)	- (0-19% control at 400 ppm)	++ (90-100% control at 400 ppm)	+ (20-89% control at 400 ppm)	- (0-19% control at 400 ppm)	- (0-19% control at 400 ppm)	–	–	–	–	0	0	0	0	0	0	0	0	–
